Measured values taken from US7741445B2, “Breast cancer resistance protein (BCRP) antibodies” (University of Maryland, Baltimore, priority 1998, dated 2010).
“Also recorded” adds a separate entry of the source.

Legend:
MCF-7/AdrVp = conditions: subline selected with doxorubicin in the presence of verapamil; cited from earlier work
[1] = test system: BCRP-transfected MCF-7 cells; assay: FTC effects on BBR3390 accumulation and retention, flow cytometry; type: cell-based, human; conditions: 10 uM FTC
Procedure: MCF-7 cells transfected with either the pcDNA3 empty vector or pcDNA3 containing the full-length BCRP cDNA (transfectant clone 8) were cultured as monolayers in tissue culture flasks. The effects of FTC on the accumulation of the aza-anthrapyrazole BBR3390 were measured by exposing these cells to the fluorescent aza-anthrapyrazole BBR3390 (5 uM) in the presence or absence of 10 uM FTC for 60 minutes. Then, the cells were removed from the flasks by trypsinization, and intracellular BBR3390 content was measured by flow cytometry. The effects of FTC on BBR3390 retention were measured by exposing another set of cells (vector control and transfectant clone 8) to 5 uM BBR3390 with and without 10 uM FTC for 60 minutes, washing the cells free of drug, then reincubating the cells for an additional 30 minutes in fresh medium with and without FTC. Intracellular BBR3390 content was measured by flow cytometry. (See FIG. 10).

[2] = test system: cells that overexpress Pgp or MRP; conditions: cited from earlier work
[3] = test system: MCF-7/BCRP transfectant clones 6 and 8; assay: Sulforhodamine-B (SRB) cytotoxicity assay; type: cell-based, human; conditions: compared to clone 19, MCF-7 cells or empty vector-transfected controls
Procedure: (§1) The full-length BCRP cDNA was inserted into the multiple to cloning site of expression vector pcDNA3 (Invitrogen). Following subcloning of the pcDNA3-BCRP construct, DNA sequence analysis was performed to confirm that the insert in the clone that was chosen was in a sense orientation to the CMV promoter of the pcDNA3 vector. MCF-7 cells were transfected with pcDNA3-BCRP, using the calcium phosphate precipitation method (17), selected by culture with geneticin (G418, 1 mg/ml), then subclone by limiting dilution in 96 well flat-bottomed culture plates. Subclones were tested for expression of BCRP mRNA by Northern blot analysis, using radiolabeled Clone 8 cDNA as a probe (FIG. 4A). As a control, MCF-7 cells were also transfected with the empty pcDNA3 vector, then selected by growth in medium containing 1 mg/ml G418 (FIG. 4A).
The sensitivities of the various transfected sublines to chemotherapeutic agents were tested by the sulforhodamine-B (SRB) cytotoxicity assay (14). The LC50, defined as the concentration of drug that caused lethality to 50% of the cells, was calculated. From this, the “Fold of Resistance” (RF) was calculated by dividing the LC50 for a given drug against a transfected cell line by the LC50 of that drug against non-transfected MCF-7 cells. […] FIG. 5 contains the median LC50 values for multiple cytotoxicity experiments for all cell lines and drugs tested. […] The asterisk and solid line in FIG. 4D indicate MCF-7/W cells, the closed squares and dotted lines represent MCF-7/pcDNA3-BCRP clone 8 cells. The vertical bars in the figure represent the standard deviation of six replicate determinations.

[4] = test system: BCRP-overexpressing clones 6 and 8 (MCF-7 cells transfected with pcDNA3-BCRP); assay: Daunorubicin accumulation and retention by flow cytometry; type: cell-based, human
Procedure: as §1
Daunorubicin accumulation and retention was examined in the transfected cells by means of flow cytometry.

EPP85-181RDB = conditions: pancreatic; cited from earlier work
MCF-7/AdrVp cells = conditions: MCF-7/AdrVp vs MCF-7; cited from earlier work
EPG85-257RDB = conditions: gastric; cited from earlier work
MCF-7/Adr = conditions: breast; cited from earlier work
H69/AR = conditions: small cell lung; cited from earlier work
MCF-7/VP = conditions: breast; cited from earlier work
H209/V6 = conditions: H209/V6, small cell lung; cited from earlier work
MCF-7/MTX = conditions: breast; cited from earlier work
MCF-7/MXPR = conditions: breast; cited from earlier work
MCF-7/MXRS250 = conditions: MCF-7/MXRS250, breast; cited from earlier work
MCF-7/MXRS600 = conditions: MCF-7/MXRS600, breast; cited from earlier work
8226/MR20 = conditions: 8226/MR20, myeloma; cited from earlier work
S1M1-3.2 = conditions: S1M1-3.2, colon; cited from earlier work
H209/MX2 = conditions: H209/MX2, small cell lung; cited from earlier work
H209/MX4 = conditions: H209/MX4, small cell lung; cited from earlier work
HL-60/MX2 = conditions: HL-60/MX2, leukemia; cited from earlier work
MCF-7/Mitox = conditions: breast; cited from earlier work
MDA-MB-231RNOV = conditions: breast; cited from earlier work
HT29RNOV = conditions: colon; cited from earlier work
EPG85-257RNOV = conditions: gastric; cited from earlier work
EPP85-181RNOV = conditions: pancreatic; cited from earlier work
EPF86-079RNOV = conditions: fibrosarcoma; cited from earlier work

COc1cccc2c1C(=O)c1c(O)c3c(c(O)c1C2=O)CC(O)(C(=O)CO)CC3OC1CC(N2CCOCC2C#N)C(O)C(C)O1 (stereo not shown) [3′-deamino-3′[3-cyano-4-morpholinyl]doxorubicin]
cross-resistance of MCF-7/AdrVp subline (MCF-7/AdrVp): marked cross-resistance

COc1ccc2c3c([nH]c2c1)[C@H](C=C(C)C)N1C(=O)[C@@H]2CCCN2C(=O)[C@@H]1C3 [FTC, Fumitremorgin C]
effect on accumulation of BBR 3390 ([1]; 5 uM BBR3390, 60 minutes): able to enhance the accumulation | effect on efflux of BBR 3390 ([1]; 5 uM BBR3390, 60 minutes then 30 minutes in fresh medium): inhibit the efflux | reversal of resistance [2]: does not reverse resistance

N.N.[Cl][Pt][Cl] [cisplatin]
resistance / sensitivity of BCRP-overexpressing clones 6 and 8 to chemotherapeutic agent [3]: remained relatively sensitive | cross-resistance of MCF-7/AdrVp subline (MCF-7/AdrVp): remains sensitive

COc1cccc2c1C(=O)c1c(O)c3c(c(O)c1C2=O)C[C@@](O)(C(C)=O)C[C@@H]3O[C@H]1C[C@H](N)[C@H](O)[C@H](C)O1 [daunorubicin]
intracellular steady-state concentration of drug, of that attained in the vector control cells ([4]; MCF-7/BCRP clone 6 vs pcDNA3 vector control cells): ~50% | intracellular steady-state concentration of drug, of that attained in the vector control cells ([4]; MCF-7/BCRP clone 8 vs pcDNA3 vector control cells): approximately 30% | resistance / sensitivity of BCRP-overexpressing clones 6 and 8 to chemotherapeutic agent [3]: displayed resistance | Fold resistance to selecting agent (EPP85-181RDB): 846 fold | cross-resistance of MCF-7/AdrVp subline (MCF-7/AdrVp): marked cross-resistance | intracellular accumulation compared to MCF-7 cells (MCF-7/AdrVp cells): marked reduction | Fold resistance to selecting agent (EPG85-257RDB): 1,857 fold

COc1cccc2c1C(=O)c1c(O)c3c(c(O)c1C2=O)C[C@@](O)(C(=O)CO)C[C@@H]3O[C@H]1C[C@H](N)[C@H](O)[C@H](C)O1 [doxorubicin]
resistance / sensitivity of BCRP-overexpressing clones 6 and 8 to chemotherapeutic agent [3]: displayed resistance | Fold resistance to selecting agent (MCF-7/Adr): 192 fold | Fold resistance to selecting agent (H69/AR): 100 fold

COc1cc([C@@H]2c3cc4c(cc3[C@@H](O[C@@H]3O[C@@H]5CO[C@@H](C)O[C@H]5[C@H](O)[C@H]3O)[C@H]3COC(=O)[C@H]23)OCO4)cc(OC)c1O [etoposide]
Fold resistance to selecting agent (MCF-7/VP): 26 fold | Fold resistance to selecting agent (H209/V6): 22 fold

CC(=O)[C@]1(O)Cc2c(O)c3c(c(O)c2[C@@H](O[C@H]2C[C@H](N)[C@H](O)[C@H](C)O2)C1)C(=O)c1ccccc1C3=O [idarubicin]
resistance / sensitivity of BCRP-overexpressing clones 6 and 8 to chemotherapeutic agent [3]: remained relatively sensitive | cross-resistance of MCF-7/AdrVp subline (MCF-7/AdrVp): not

CN(Cc1cnc2nc(N)nc(N)c2n1)c1ccc(C(=O)N[C@@H](CCC(=O)O)C(=O)O)cc1 [methotrexate]
Fold resistance to selecting agent (MCF-7/MTX): 1,000 fold

O=C1c2c(O)ccc(O)c2C(=O)c2c(NCCNCCO)ccc(NCCNCCO)c21 [mitoxantrone]
resistance / sensitivity of BCRP-overexpressing clones 6 and 8 to chemotherapeutic agent [3]: displayed resistance; also recorded: greatest degree of resistance | Fold resistance to selecting agent (MCF-7/MXPR): 270 fold | Fold resistance to selecting agent (MCF-7/MXRS250): 4,600 fold | Fold resistance to selecting agent (MCF-7/MXRS600): 7,450 fold | Fold resistance to selecting agent (8226/MR20): 36 fold | Fold resistance to selecting agent (S1M1-3.2): 1,435 fold | Fold resistance to selecting agent (H209/MX2): 2 fold | Fold resistance to selecting agent (H209/MX4): 4 fold | Fold resistance to selecting agent (HL-60/MX2): 35 fold | cross-resistance of MCF-7/AdrVp subline (MCF-7/AdrVp): marked cross-resistance | Fold resistance to selecting agent (MCF-7/Mitox): 1,206 fold | Fold resistance to selecting agent (MDA-MB-231RNOV): 93 fold | Fold resistance to selecting agent (HT29RNOV): 100 fold | Fold resistance to selecting agent (EPG85-257RNOV): 457 fold | Fold resistance to selecting agent (EPP85-181RNOV): 27 fold | Fold resistance to selecting agent (EPF86-079RNOV): 7 fold

CC(=O)O[C@H]1C(=O)[C@@]2(C)[C@H]([C@H](OC(=O)c3ccccc3)[C@]3(O)C[C@H](OC(=O)[C@H](O)[C@@H](NC(=O)c4ccccc4)c4ccccc4)C(C)=C1C3(C)C)[C@]1(OC(C)=O)CO[C@@H]1C[C@@H]2O [paclitaxel]
resistance / sensitivity of BCRP-overexpressing clones 6 and 8 to chemotherapeutic agent [3]: remained relatively sensitive | cross-resistance of MCF-7/AdrVp subline (MCF-7/AdrVp): remains sensitive

rhodamine 123
intracellular accumulation compared to MCF-7 cells (MCF-7/AdrVp cells): marked reduction
